#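 Interpolation was linear, between the two tested concentrations surrounding the appropriate level; five concentrations were tested over 48 hours in 96-well plates. Abbreviation: GI50, concentration required for 50% inhibition of growth.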 Activity calls are given as the source filed them. Cut-off read from the data, not from the text of the source: active = GI50 up to about 1.1 µM and inactive = higher.
# Columns and labels:
# Assay in all cases: NCI-60 cell line screen, 48 h
# [1] = system: SK-OV-3
# [2] = system: HCT-116
# [3] = system: SW-620
# [4] = system: OVCAR-4
# [5] = system: CAKI-1
# [6] = system: HOP-62
# [7] = system: NCI-H23
# [8] = system: K562
# [9] = system: ACHN
# [10] = system: UACC-257
# [11] = system: SK-MEL-28
# [12] = system: RPMI-8226
# [13] = system: COLO 205
# [14] = system: IGROV-1
# [15] = system: HCC 2998
# [16] = system: SK-MEL-5
# [17] = system: HOP-92
# [18] = system: T47D
# [19] = system: CCRF-CEM
# [20] = system: LOX IMVI
# [21] = system: NCI/ADR-RES
# [22] = system: NCI-H226
# [23] = system: EKVX
# [24] = system: SF-268
# [25] = system: U-251
# [26] = system: UACC-62
# [27] = system: DU-145
# [28] = system: MDA-MB-231
# [29] = system: KM12
# [30] = system: HCT-15
# [31] = system: OVCAR-8
# [32] = system: NCI-H522
# [33] = system: MOLT-4
# [34] = system: SR
# [35] = system: TK-10
# [36] = system: OVCAR-5
# [37] = system: NCI-H460
# [38] = system: HL-60
# [39] = system: MDA-MB-435
# [40] = system: OVCAR-3
# [41] = system: SF-295
# [42] = system: A498
# [43] = system: 786-0
# [44] = system: MDA-N
# [45] = system: UO-31
# [46] = system: Hs-578T
# [47] = system: A549
# [48] = system: M14
# [49] = system: HT-29
# [50] = system: BT-549
# [51] = system: SNB-75
# [52] = system: SK-MEL-2
# [53] = system: SN12C
# [54] = system: RXF 393
# [55] = system: SF-539
# [56] = system: MCF7
# [57] = system: SNB-19
# [58] = system: PC-3
# [59] = system: Malme-3M
structure (smiles),measurement,setting,value
COC(=O)[C@@H]1CCc2nc3ccccc3c(=O)n21,GI50,[1],> 100 µM (inactive)
same,GI50,[2],> 100 µM (inactive)
same,GI50,[3],> 100 µM (inactive)
same,GI50,[4],> 100 µM (inactive)
same,GI50,[5],> 100 µM (inactive)
same,GI50,[6],> 100 µM (inactive)
same,GI50,[7],> 100 µM (inactive)
same,GI50,[8],> 100 µM (inactive)
same,GI50,[9],> 100 µM (inactive)
same,GI50,[10],> 100 µM (inactive)
same,GI50,[11],> 100 µM (inactive)
same,GI50,[12],> 100 µM (inactive)
same,GI50,[13],> 100 µM (inactive)
same,GI50,[14],> 100 µM (inactive)
same,GI50,[15],> 100 µM (inactive)
same,GI50,[16],> 100 µM (inactive)
same,GI50,[17],> 100 µM (inactive)
same,GI50,[18],> 100 µM (inactive)
same,GI50,[19],> 100 µM (inactive)
same,GI50,[20],> 100 µM (inactive)
same,GI50,[21],> 100 µM (inactive)
same,GI50,[22],93.1 µM (inactive)
same,GI50,[23],> 100 µM (inactive)
same,GI50,[24],> 100 µM (inactive)
same,GI50,[25],> 100 µM (inactive)
same,GI50,[26],> 100 µM (inactive)
same,GI50,[27],> 100 µM (inactive)
same,GI50,[28],> 100 µM (inactive)
same,GI50,[29],> 100 µM (inactive)
same,GI50,[30],> 100 µM
same,GI50,[31],> 100 µM (inactive)
same,GI50,[32],> 100 µM (inactive)
same,GI50,[33],> 100 µM (inactive)
same,GI50,[34],> 100 µM (inactive)
same,GI50,[35],> 100 µM (inactive)
same,GI50,[36],> 100 µM (inactive)
same,GI50,[37],> 100 µM (inactive)
same,GI50,[38],> 100 µM (inactive)
same,GI50,[39],> 100 µM (inactive)
same,GI50,[40],> 100 µM (inactive)
same,GI50,[41],> 100 µM (inactive)
same,GI50,[42],> 100 µM (inactive)
same,GI50,[43],> 100 µM (inactive)
same,GI50,[44],> 100 µM (inactive)
same,GI50,[45],> 100 µM (inactive)
same,GI50,[46],> 100 µM (inactive)
same,GI50,[47],> 100 µM (inactive)
same,GI50,[48],> 100 µM (inactive)
same,GI50,[49],> 100 µM (inactive)
same,GI50,[50],> 100 µM (inactive)
same,GI50,[51],> 100 µM (inactive)
same,GI50,[52],> 100 µM (inactive)
same,GI50,[53],> 100 µM (inactive)
NS(=O)(=O)c1nnc(NS(=O)(=O)c2cccc3cccnc23)s1,GI50,[1],> 100 µM (inactive)
same,GI50,[2],> 100 µM (inactive)
same,GI50,[3],> 100 µM (inactive)
same,GI50,[54],> 100 µM (inactive)
same,GI50,[4],> 100 µM (inactive)
same,GI50,[5],> 100 µM (inactive)
same,GI50,[6],> 100 µM (inactive)
same,GI50,[7],> 100 µM (inactive)
same,GI50,[8],> 100 µM (inactive)
same,GI50,[9],> 100 µM (inactive)
same,GI50,[10],> 100 µM (inactive)
same,GI50,[11],> 100 µM (inactive)
same,GI50,[12],> 100 µM (inactive)
same,GI50,[13],> 100 µM (inactive)
same,GI50,[15],> 100 µM (inactive)
same,GI50,[16],> 100 µM (inactive)
same,GI50,[17],> 100 µM (inactive)
same,GI50,[18],> 100 µM (inactive)
same,GI50,[19],> 100 µM (inactive)
same,GI50,[20],> 100 µM (inactive)
same,GI50,[21],> 100 µM (inactive)
same,GI50,[22],> 100 µM (inactive)
same,GI50,[55],> 100 µM (inactive)
same,GI50,[23],> 100 µM (inactive)
same,GI50,[24],> 100 µM (inactive)
same,GI50,[25],> 100 µM (inactive)
same,GI50,[56],> 100 µM (inactive)
same,GI50,[26],> 100 µM (inactive)
same,GI50,[27],> 100 µM (inactive)
same,GI50,[28],> 100 µM (inactive)
same,GI50,[29],> 100 µM (inactive)
same,GI50,[30],> 100 µM
same,GI50,[31],> 100 µM (inactive)
same,GI50,[33],> 100 µM (inactive)
same,GI50,[34],41.9 µM (inactive)
same,GI50,[35],> 100 µM (inactive)
same,GI50,[36],> 100 µM (inactive)
same,GI50,[37],> 100 µM (inactive)
same,GI50,[39],> 100 µM (inactive)
same,GI50,[40],> 100 µM (inactive)
same,GI50,[41],> 100 µM (inactive)
same,GI50,[42],> 100 µM (inactive)
same,GI50,[43],> 100 µM (inactive)
same,GI50,[44],> 100 µM (inactive)
same,GI50,[45],> 100 µM (inactive)
same,GI50,[46],> 100 µM (inactive)
same,GI50,[47],> 100 µM (inactive)
same,GI50,[48],> 100 µM (inactive)
same,GI50,[57],> 100 µM (inactive)
same,GI50,[50],> 100 µM (inactive)
same,GI50,[52],> 100 µM (inactive)
same,GI50,[53],> 100 µM (inactive)
COc1cc(S(=O)(=O)Nc2ccc(-c3csc(/N=C\C=C\c4ccccc4)n3)cc2)ccc1Cl,GI50,[1],> 100 µM (inactive)
same,GI50,[2],46.8 µM (inactive)
same,GI50,[3],> 100 µM (inactive)
same,GI50,[54],16.1 µM (inactive)
same,GI50,[4],28.5 µM (inactive)
same,GI50,[5],> 100 µM (inactive)
same,GI50,[6],43 µM (inactive)
same,GI50,[7],30.9 µM (inactive)
same,GI50,[8],31.2 µM (inactive)
same,GI50,[9],41.2 µM (inactive)
same,GI50,[10],7.76 µM (inactive)
same,GI50,[11],> 100 µM (inactive)
same,GI50,[12],27.3 µM (inactive)
same,GI50,[13],36.7 µM (inactive)
same,GI50,[14],39.4 µM (inactive)
same,GI50,[15],> 100 µM (inactive)
same,GI50,[16],38.3 µM (inactive)
same,GI50,[17],22.8 µM (inactive)
same,GI50,[18],26.6 µM (inactive)
same,GI50,[19],17.5 µM (inactive)
same,GI50,[20],29.6 µM (inactive)
same,GI50,[21],59 µM (inactive)
same,GI50,[22],24.2 µM (inactive)
same,GI50,[55],22 µM (inactive)
same,GI50,[23],36.9 µM (inactive)
same,GI50,[24],29.9 µM (inactive)
same,GI50,[56],36.1 µM (inactive)
same,GI50,[26],37.9 µM (inactive)
same,GI50,[27],45.5 µM (inactive)
same,GI50,[29],84.5 µM (inactive)
same,GI50,[30],50 µM
same,GI50,[31],34.8 µM (inactive)
same,GI50,[32],24.5 µM (inactive)
same,GI50,[33],38.1 µM (inactive)
same,GI50,[34],32.5 µM (inactive)
same,GI50,[35],42.2 µM (inactive)
same,GI50,[36],> 100 µM (inactive)
same,GI50,[37],0.0484 µM (active)
same,GI50,[38],43.3 µM (inactive)
same,GI50,[39],> 100 µM (inactive)
same,GI50,[40],> 100 µM (inactive)
same,GI50,[41],74.5 µM (inactive)
same,GI50,[42],20.6 µM (inactive)
same,GI50,[43],> 100 µM (inactive)
same,GI50,[44],> 100 µM (inactive)
same,GI50,[45],44.5 µM (inactive)
same,GI50,[46],87.3 µM (inactive)
same,GI50,[47],80.5 µM (inactive)
same,GI50,[48],29.9 µM (inactive)
same,GI50,[49],> 100 µM (inactive)
same,GI50,[57],84.3 µM (inactive)
same,GI50,[50],39.1 µM (inactive)
same,GI50,[51],> 100 µM (inactive)
same,GI50,[52],26 µM (inactive)
same,GI50,[53],> 100 µM (inactive)
same,GI50,[58],19.9 µM (inactive)
same,GI50,[59],37.4 µM (inactive)
